Experimental data: patent publication US9598441B2, “Therapeutic compounds and methods” (Wayne State University, priority 2011, dated 2017)

Experiments:
[1] = test system: HBC, colon, prostate, pancreatic cancer, MPM and lymphoma cells; test: MTT cell viability assay, cancer cells; type: cell-based, human
Procedure: Logarithmically growing cells were either untreated or treated with different agents for various time periods. The cells were lysed to prepare protein extracts. IP was carried out by incubating approximately 1 mg of the protein lysate with appropriate antibodies, and the immunoprecipitates or cell lysates were then electrophoresed on 9-12% SDS-polyacrylamide gels, and transferred to nitrocellulose membranes. The membranes were subsequently probed with various antibodies to determine expression/presence of the corresponding proteins. The cell growth inhibition was assessed by using MTT assay. Briefly, MTT (3-[4,5-Dimethylthiazol-2-yl]-2,5diphenyltetrazolium bromide) was dissolved in sterile 1×PBS to prepare a stock solution of 5 mg/ml. The solution was subsequently filtered through 0.2 μm filter and stored at 2-8° C. 4−5×10^2 cells were seeded in 96-well plates. After 72 h incubation with or without different agents, MTT stock solution was added to each culture being assayed to equal one tenth the original culture volume, followed by incubation of cells at 37° C. for another 2 h. At the end of the incubation, the media was removed and cells were treated with 100-200 μl of DMSO to solubilize the dye. The assessment of the live cells was derived by measuring the absorbance of the converted dye at wavelength of 570 nm.
To test whether CFMs that interfere with CARP-1 binding with APC-2 modulate cell growth, HBC, colon, prostate, pancreatic cancer, MPM and lymphoma cells, as well as the immortalized, mammary epithelial MCF-10A cells were utilized. The cells were either treated with vehicle (DMSO) or various doses of the respective compound for a period of 72 h, and percent of live/viable cells for each compound was determined relative to the untreated controls as described in Methods.

[2] = test system: MDA-MB-468 wild-type, vector and CARP-1 (Δ896-978) expressing cells; test: MTT assay in stable HBC sublines expressing vector or CARP-1 (Δ896-978); type: cell-based, human; conditions: for growth of wild-type, vector and CARP-1 (Δ896-978) expressing cells (MTT): 0.1 and 1.0 μg/ml ADR, or 5 and 10 μM CFM-4; for sensitivity of CARP-1 (Δ896-978) expressing cells to inhibition: versus wild-type or vector cells
Source text: Routine maintenance and culture of MDA-MB-231, MDA-MB-468, SKBR-3 (all lack ER and have mutant p53), MCF-7, T47D (both have ER and wild-type p53) HBC cells (Runnebaum, I. B., Nagarajan, M., Bowman, M., Soto, D., and Sukumar, S. (1991). Proc. Natl. Acad. Sci. USA 88, 10657-10661), human prostate cancer PC3 and LnCAP cells, HCT-116 human colon cancer, human pancreatic cancer PANC-1 and BxPC-3, Burkett lymphoma Raji, diffuse large B-cell lymphoma WSU-DLCL2, follicular lymphoma WSU-FSCCL cells, cervical cancer HeLa, human mesothelial Met5a, human pleural malignant mesothelioma (MPM), murine MPM AB12 cells (Wang, Y., Rishi, A. K., Puliyappadamba, V. T., Sharma, S., Yang, H., Tarca, A., Dou, Q. P., Lonardo, F., Ruckdeschel, J. C., Pass, H. I., Wali, A. (2010) Can. Chemother. Pharmacol. 66, 455-466), and the green monkey kidney Cos-7 cells was carried out essentially as described (Rishi, A. K., Zhang, L., Boyanapalli, M., Wali, A., Mohammad, R. M., Yu, Y., Fontana, J. A., Hatfield, J. S., Dawson, M. I., Majumdar, A. P. N., and Reichert, U. (2003) J. Biol. Chem. 278, 33422-33435, Rishi, A. K., Zhang, L., Yu, Y., Jiang, Y., Nautiyal, J., Wali, A., Fontana, J. A., Levi, E., and Majumdar, A. P. N. (2006) J. Biol. Chem. 281(19), 13188-98, Zhang, L., Levi, E., Majumder, P., Yu, Y., Aboukameel, A., Du, J., Xu, H., Mohammad, R. M., Hatfield, J. S., Wali, A., Adsay, V., Majumdar, A. P. N., and Rishi, A. K. (2007) Mol. Cancer Ther. 6(5), 1661-1672, Levi, L., Zhang, L., Aboukameel, A., Rishi, S., Mohammad, R. M., Polin, L., Hatfield, J. S., and Rishi, A. K. Can. Chemother. Pharmacol. (in Press). The immortalized, non-tumorigenic human breast epithelial MCF-10A have been described before (Miller, F. R. (2000). J. Mammary Gland Biol. Neoplasia 5, 379-391). MCF-7 cells that are resistant to adriamycin (MCF-7/Adr/Vp) or tamoxifen (MCF-7-TAM) were obtained from Drs. Douglas Ross (University of Maryland Baltimore) and Kaladhar Reddy (Pathology Department, Wayne State University, Detroit, Mich.), respectively, and were maintained essentially following methods described before (Doyle, L. A., Yang, W., Abruzzo, L. V., Krogmann, T., Gao, Y., Rishi, A. K., and Ross, D. D. (1998). Proc. Natl. Acad. Sci. (USA), 95, 15665-15670, Nabha, S., Glaros, S., Hong, M., Lykkesfeidt, A. E., Schiff, R., Osborne, C. K., Reddy, K. B. (2005). Oncogene, 24, 3166-3176). The stable sublines were generated by transfecting the MDA-MB-468 cells with the vector or the recombinant pcDNA3/CARP-1 (Δ896-978)-myc-His plasmid followed by selection in the presence of 800 μg/ml neomycin using described methods (Rishi, A. K., Zhang, L., Boyanapalli, M., Wali, A., Mohammad, R M, Yu, Y., Fontana, J. A., Hatfield, J. S., Dawson, M. I., Majumdar, A. P. N., and Reichert, U. (2003) J. Biol. Chem. 278, 33422-33435).
Logarithmically growing cells were either untreated or treated with different agents for various time periods. The cells were lysed to prepare protein extracts. IP was carried out by incubating approximately 1 mg of the protein lysate with appropriate antibodies, and the immunoprecipitates or cell lysates were then electrophoresed on 9-12% SDS-polyacrylamide gels, and transferred to nitrocellulose membranes. The membranes were subsequently probed with various antibodies to determine expression/presence of the corresponding proteins. The cell growth inhibition was assessed by using MTT assay. […]

## Cc1cc(Br)cc2c1NC(=O)/C2=C1\SC(=S)NC1=O [CFM-1, (Z)-5-(5-bromo-7-methyl-2-oxoindolin-3-ylidene)-2-thioxothiazolidin-4-one]
[1]; HBC cells, 72 h
  HBC cell growth / viability (MTT): suppressed viabilities
[1]; MPM cells, 72 h
  cell growth of MPM cells (MTT): elicited activity towards select MPM cells

## O=C1N(Cc2ccccc2Cl)c2ccccc2C12NN=C(c1ccccc1)S2 (stereo not drawn) [CFM-4, 1-(2-chlorobenzyl)-5′-phenyl-3′H-spiro[indoline-3,2′-[1,3,4]thiadiazol]-2-one]
[2]; 10 μM dose
  loss of viability of CARP-1 (Δ896-978) cells versus wild-type or vector-transfected cells: greater loss of viability
[2]
  growth of wild-type, vector and CARP-1 (Δ896-978) expressing cells (MTT): suppressed growth
  sensitivity of CARP-1 (Δ896-978) expressing cells to inhibition: generally more sensitive
[1]; HBC cells, 20 μM dose
  sensitivity of HBC cells compared with similar dose of CFM-1 and 5 (MTT): relative increased sensitivity
[1]; HBC cells, 72 h
  HBC cell growth / viability (MTT): suppressed viabilities

## COc1cccc2c1C(=O)c1c(O)c3c(c(O)c1C2=O)C[C@@](O)(C(=O)CO)C[C@@H]3O[C@H]1C[C@H](N)[C@H](O)[C@H](C)O1 [ADR, adriamycin, reference compound]
[2]
  growth of wild-type, vector and CARP-1 (Δ896-978) expressing cells (MTT): suppressed growth
  sensitivity of CARP-1 (Δ896-978) expressing cells to inhibition: generally more sensitive
